From US10913720B2, “Benzyloxypyridylcyclopropanecarboxylic acids, pharmaceutical compositions and uses thereof” (Boehringer Ingelheim International GmbH, priority 2017, dated 2021) come the findings set out here.

Sequence of human GPR40 receptor (O14842 whole entry): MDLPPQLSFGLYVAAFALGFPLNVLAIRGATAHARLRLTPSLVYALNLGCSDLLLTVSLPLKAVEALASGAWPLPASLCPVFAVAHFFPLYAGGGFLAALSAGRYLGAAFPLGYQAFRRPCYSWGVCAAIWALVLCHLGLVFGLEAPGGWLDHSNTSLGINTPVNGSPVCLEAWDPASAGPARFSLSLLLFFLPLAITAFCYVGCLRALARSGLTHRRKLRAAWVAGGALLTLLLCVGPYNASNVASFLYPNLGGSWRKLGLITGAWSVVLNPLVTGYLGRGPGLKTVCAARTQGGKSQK

The test deals with human GPR40 receptor (Homo sapiens, UniProt O14842). Briefly: IP1 accumulation measurements using the IPOne assay system. Particulars: 1321N1 cells stably expressing human GPR40; 1 h stimulation at 37° C. The format is cell-based. As to the method:
IP1 accumulation measurements using the IPOne assay system—1321N1 cells stably expressing human GPR40 receptor (Euroscreen, Belgium) are seeded 24 h before the assay in white 384-well plates in culture medium containing 10% FCS, 1% Na-Pyruvate and 400 μg/mL G418. IP1 is assayed according to the manufacturer's description (Cisbio Bioassays, France). In brief, the assay is started by substitution of the culture medium by stimulation buffer (Hepes 10 mM, CaCl2) 1 mM, MgCl2 0.5 mM, KCl 4.2 mM, NaCl 146 mM, glucose 5.5 mM and LiCl 50 mM, pH 7.4). Cells are stimulated for 1 h at 37° C., 5% CO2 by addition of the compounds that are diluted in stimulation buffer containing LiCl. Assays are stopped by adding HTRF-conjugates (IP1-d2 and Anti-IP1 cryptate Tb) and lysis buffer, provided by the manufacturer. After an incubation time of 1 h at room temperature plates are measured using an EnVision™, Perkin Elmer. The obtained fluorescence ratios at 665/615 […] are then used to calculate the pEC50 values using Assay Explorer 3.3 Software (Accelrys, Inc.) by interpolation using an IP1 reference curve and subsequent sigmoidal curve fitting allowing for a variable hill slope.
For the molecule `CCc1cccc(CC)c1-c1cccc(COc2ccc([C@H]3C[C@@H]3C(=O)O)nc2)c1` [Example 9, (1S,2S)-2-[5-(2′,6′-Diethyl-biphenyl-3-ylmethoxy)-pyridin-2-yl]-cyclopropane-carboxylic Acid], the midpoint of the response, the EC50, lay at 62 nM.
On to `Cc1cc(-c2nnn(CC(C)(C)O)n2)cc(C)c1-c1ccc(F)c(COc2ccc([C@H]3C[C@@H]3C(=O)O)nc2)c1` [Example 18, (1S,2S)-2-(5-{4-Fluoro-4′-[2-(2-hydroxy-2-methyl-propyl)-2H-tetrazol-5-yl]-2′,6′-dimethyl-biphenyl-3-ylmethoxy}-pyridin-2-yl)-cyclopropanecarboxylic Acid], for which the EC50 – broadly, the concentration at which the effect is half-maximal – was found to be 6 nM.
On to `Cc1cnc(-c2cc(C)c(-c3cccc(COc4ccc([C@H]5C[C@@H]5C(=O)O)nc4)c3)c(C)c2)nc1` [Example 2, (1S,2S)-2-{5-[2′,6′-Dimethyl-4′-(5-methyl-pyrimidin-2-yl)-biphenyl-3-ylmethoxy]-pyridin-2-yl}-cyclopropanecarboxylic Acid], for which the EC50 was 6 nM.
Molecule `Cc1cc(-c2cnccn2)cc(C)c1-c1cccc(COc2ccc([C@H]3C[C@@H]3C(=O)O)nc2)c1` [Example 5, (1S,2S)-2-[5-(2′,6′-Dimethyl-4′-pyrazin-2-yl-biphenyl-3-ylmethoxy)-pyridin-2-yl]-cyclopropanecarboxylic Acid] displayed an EC50 of 11 nM.
With `COc1cc(-c2cc(C)c(-c3cccc(COc4ccc([C@H]5C[C@@H]5C(=O)O)nc4)c3)c(C)c2)ccn1` [Example 8, (1S,2S)-2-{5-[4′-(2-Methoxy-pyridin-4-yl)-2′,6′-dimethyl-biphenyl-3-ylmethoxy]-pyridin-2-yl}-cyclopropanecarboxylic Acid], the EC50 is 6 nM.
For `Cc1cc(O[C@H]2CCOC2)cc(C)c1-c1cccc(COc2ccc([C@H]3C[C@@H]3C(=O)O)nc2)c1` [Example 12, (1S,2S)-2-(5-{2′,6′-Dimethyl-4′-[(S)-(tetrahydrofuran-3-yl)oxy]-biphenyl-3-ylmethoxy}-pyridin-2-yl)-cyclopropanecarboxylic Acid] the value was 27 nM; for `Cc1cc(-c2cnccn2)cc(C)c1-c1ccc(F)c(COc2ccc([C@H]3C[C@@H]3C(=O)O)nc2)c1` [Example 19, (1S,2S)-2-[5-(4-Fluoro-2′,6′-dimethyl-4′-pyrazin-2-yl-biphenyl-3-ylmethoxy)-pyridin-2-yl]-cyclopropanecarboxylic Acid], 7 nM.
Next, `Cc1cc(C(=O)O)cc(C)c1-c1ccc(F)c(COc2ccc([C@H]3C[C@@H]3C(=O)O)nc2)c1` [Example 24, (1S,2S)-3′-[6-(−2-Carboxy-cyclopropyl)-pyridin-3-yloxymethyl]-4′-fluoro-2,6-dimethyl-biphenyl-4-carboxylic Acid]: 2120 nM.
On to `Cc1cc(OCC2(C)COC2)cc(C)c1-c1ccc(F)c(COc2ccc([C@H]3C[C@@H]3C(=O)O)nc2)c1` [Example 23, (1S,2S)-2-{5-[4-Fluoro-2′,6′-dimethyl-4′-(3-methyl-oxetan-3-ylmethoxy)-biphenyl-3-ylmethoxy]-pyridin-2-yl}-cyclopropanecarboxylic Acid], for which the EC50 stood at 24 nM.
As for `Cc1cnc(-c2cc(C)c(-c3ccc(F)c(COc4ccc([C@H]5C[C@@H]5C(=O)O)nc4)c3)c(C)c2)nc1` [Example 22, (1S,2S)-2-{5-[4-Fluoro-2′,6′-dimethyl-4′-(5-methyl-pyrimidin-2-yl)-biphenyl-3-ylmethoxy]-pyridin-2-yl}-cyclopropanecarboxylic Acid], the EC50 worked out at 4 nM.
With `Cc1cc(OCC(C)(C)O)cc(C)c1-c1ccc(F)c(COc2ccc([C@H]3C[C@@H]3C(=O)O)nc2)c1` [Example 25, (1S,2S)-2-{5-[4-Fluoro-4′-(2-hydroxy-2-methyl-propoxy)-2′,6′-dimethyl-biphenyl-3-ylmethoxy]-pyridin-2-yl}-cyclopropanecarboxylic Acid], the EC50 came out at 36 nM.
Take `Cc1cc(-c2ccnn2C)cc(C)c1-c1cccc(COc2ccc([C@H]3C[C@@H]3C(=O)O)nc2)c1` [Example 7, (1S,2S)-2-{5-[2′,6′-Dimethyl-4′-(2-methyl-2H-pyrazol-3-yl)-biphenyl-3-ylmethoxy]-pyridin-2-yl}-cyclopropanecarboxylic Acid]: the EC50 was found to be 11 nM.
With `O=C(O)[C@H]1C[C@@H]1c1ccc(OCc2cccc(-c3c(Cl)cccc3Cl)c2)cn1` [Example 15, (1S,2S)-2-[5-(2′,6′-Dichloro-biphenyl-3-ylmethoxy)-pyridin-2-yl]-cyclopropane-carboxylic Acid], a half-maximal response (EC50) required 24 nM.
Molecule `CC(C)(O)CCOc1ccc(-c2cc(COc3ccc([C@H]4C[C@@H]4C(=O)O)nc3)ccc2C(F)(F)F)cc1` [Example 30, (1S,2S)-2-{5-[4′-(3-Hydroxy-3-methyl-butoxy)-6-trifluoromethyl-biphenyl-3-ylmethoxy]-pyridin-2-yl}-cyclopropanecarboxylic Acid] registered an EC50 of 12 nM.
In the case of `Cc1cc(-c2nnn(CC(C)(C)O)n2)cc(C)c1-c1cccc(COc2ccc([C@H]3C[C@@H]3C(=O)O)nc2)c1` [Example 6, (1S,2S)-2-(5-{4′-[2-(2-Hydroxy-2-methyl-propyl)-2H-tetrazol-5-yl]-2′,6′-dimethyl-biphenyl-3-ylmethoxy}-pyridin-2-yl)-cyclopropanecarboxylic Acid], the response was half-maximal at 9 nM (EC50).
Turning to `COc1cc(-c2cc(C)c(-c3ccc(F)c(COc4ccc([C@H]5C[C@@H]5C(=O)O)nc4)c3)c(C)c2)ccn1` [Example 20, (1S,2S)-2-{5-[4-Fluoro-4′-(2-methoxy-pyridin-4-yl)-2′,6′-dimethyl-biphenyl-3-ylmethoxy]-pyridin-2-yl}-cyclopropanecarboxylic Acid], the 50% effective concentration (EC50) came to 5 nM.
For `Cc1cc(-c2ccnn2C)cc(C)c1-c1ccc(F)c(COc2ccc([C@H]3C[C@@H]3C(=O)O)nc2)c1` [Example 21, (1S,2S)-2-{5-[4-Fluoro-2′,6′-dimethyl-4′-(2-methyl-2H-pyrazol-3-yl)-biphenyl-3-ylmethoxy]-pyridin-2-yl}-cyclopropanecarboxylic Acid] the value was 6 nM; for `Cc1cc(-c2nnn(C)n2)cc(C)c1-c1ccc(F)c(COc2ccc([C@H]3C[C@@H]3C(=O)O)nc2)c1` [Example 17, (1S,2S)-2-{5-[4-Fluoro-2′,6′-dimethyl-4′-(2-methyl-2H-tetrazol-5-yl)-biphenyl-3-ylmethoxy]-pyridin-2-yl}-cyclopropanecarboxylic Acid], 3 nM; for `Cc1cc(OC2CCOCC2)cc(C)c1-c1cccc(COc2ccc([C@H]3C[C@@H]3C(=O)O)nc2)c1` [Example 13, (1S,2S)-2-{5-[2′,6′-Dimethyl-4′-(tetrahydro-pyran-4-yloxy)-biphenyl-3-ylmethoxy]-pyridin-2-yl}-cyclopropanecarboxylic Acid], 29 nM.
The molecule `COc1cc(C)c(-c2cccc(COc3ccc([C@H]4C[C@@H]4C(=O)O)nc3)c2)c(C)c1` [Example 14, (1S,2S)-2-[5-(4′-Methoxy-2′,6′-dimethyl-biphenyl-3-ylmethoxy)-pyridin-2-yl]-cyclopropanecarboxylic Acid] showed an EC50 of 27 nM.
`COc1ccc(-c2ccc(-c3cc(COc4ccc([C@H]5C[C@@H]5C(=O)O)nc4)ccc3C(F)(F)F)cc2)nn1` [Example 29, (1S,2S)-2-{5-[4′-(6-Methoxy-pyridazin-3-yl)-6-trifluoromethyl-biphenyl-3-ylmethoxy]-pyridin-2-yl}-cyclopropanecarboxylic Acid]: the EC50 is 10 nM.
For the molecule `Cc1cc(OCC2CCCO2)cc(C)c1-c1cccc(COc2ccc([C@H]3C[C@@H]3C(=O)O)nc2)c1` (stereo partly drawn) [Example 11, (1S,2S)-2-{5-[2′,6′-Dimethyl-4′-(tetrahydro-furan-2-ylmethoxy)-biphenyl-3-ylmethoxy]-pyridin-2-yl}-cyclopropanecarboxylic Acid], the midpoint of the response, the EC50, lay at 32 nM.
With `COc1cnc(-c2ccc(-c3cc(COc4ccc([C@H]5C[C@@H]5C(=O)O)nc4)ccc3C(F)(F)F)cc2)nc1` [Example 28, (1S,2S)-2-{5-[4′-(5-Methoxy-pyrimidin-2-yl)-6-trifluoromethyl-biphenyl-3-ylmethoxy]-pyridin-2-yl}-cyclopropanecarboxylic Acid], the EC50 worked out at 4 nM.
For `Cc1cc(-c2ccc(=O)n(C)c2)cc(C)c1-c1cccc(COc2ccc([C@H]3C[C@@H]3C(=O)O)nc2)c1` [Example 4, (1S,2S)-2-{5-[2′,6′-Dimethyl-4′-(1-methyl-6-oxo-1,6-dihydro-pyridin-3-yl)-biphenyl-3-ylmethoxy]-pyridin-2-yl}-cyclopropanecarboxylic Acid] the value was 15 nM; for `Cc1cc(OCCC(C)(C)O)cc(C)c1-c1cc(COc2ccc([C@H]3C[C@@H]3C(=O)O)nc2)c(F)cc1F` [Example 26, (1S,2S)-2-{5-[4,6-Difluoro-4′-(3-hydroxy-3-methyl-butoxy)-2′,6′-dimethyl-biphenyl-3-ylmethoxy]-pyridin-2-yl}-cyclopropanecarboxylic Acid], 12 nM.
For `Cc1cc(OCC2CCOCC2)cc(C)c1-c1cccc(COc2ccc([C@H]3C[C@@H]3C(=O)O)nc2)c1` [Example 10, (1S,2S)-2-{5-[2′,6′-Dimethyl-4′-(tetrahydro-pyran-4-ylmethoxy)-biphenyl-3-ylmethoxy]-pyridin-2-yl}-cyclopropanecarboxylic Acid], the EC50 amounted to 23 nM.
